The subject of data set [1] is Streptococcus pyogenes. In words: Antibacterial activity against Streptococcus pyogenes MTCC 389 at 10 ug/ml by disk diffusion method. It is filed as functional. Particulars: read-out: IZ. (A growth-free zone around the sample is the usual read-out of agar diffusion tests.)
The subject of data set [2] is Streptococcus pyogenes. In words: Ratio of compound IZ to amikacin IZ for Streptococcus pyogenes MTCC 389 at 10 ug/ml by disk diffusion method. It is filed as functional.
Data set [3] concerns Escherichia coli. Kind of data set: Antibacterial activity against Escherichia coli MTCC 722 at 10 ug/ml by disk diffusion method. It is filed as functional. Particulars: read-out: IZ.
Data set [4] relates to Pseudomonas aeruginosa. In words: Antibacterial activity against Pseudomonas aeruginosa […] at 10 ug/ml by disk diffusion method. Particulars: read-out: IZ. Format: functional.
For data set [5], the system named is Pseudomonas aeruginosa. In words: Ratio of compound IZ to amikacin IZ for Pseudomonas aeruginosa […] at 10 ug/ml by disk diffusion method. Format: functional.
For data set [6], the system named is Mus musculus. Kind of data set: Acute toxicity in Mus musculus (mouse) at 300 mg/kg. Format: organism-based. The arrangement: dose 300 mg/kg. Particulars: in vivo.
Data set [7] relates to Candida albicans. In words: Ratio of compound IZ to nystatin IZ for Candida albicans MTCC 227 at 10 ug/ml by disk diffusion method. It is filed as functional.
In data set [8] the test system is Escherichia coli. Kind of data set: Ratio of compound IZ to amikacin IZ for Escherichia coli MTCC 722 at 10 ug/ml by disk diffusion method. Format: functional.
Data set [9] has as its system Staphylococcus aureus. Kind of data set: Ratio of compound IZ to amikacin IZ for Staphylococcus aureus MTCC 96 at 10 ug/ml by disk diffusion method. It is filed as functional.
The subject of data set [10] is Candida albicans. In words: Antifungal activity against Candida albicans MTCC 227 at 10 ug/ml by disk diffusion method. It is filed as functional. Particulars: read-out: IZ.
The subject of data set [11] is Staphylococcus aureus. Kind of data set: Antibacterial activity against Staphylococcus aureus MTCC 96 at 10 ug/ml by disk diffusion method. It is filed as functional. The settings on record: read-out: IZ.

Turning to `CCOC(=O)C1C(c2ccccc2)N(N=O)C(c2ccccc2)C(C(=O)OCC)S1(=O)=O` (stereo not drawn), the zone of inhibition at 10 µg/mL in data set [1] worked out at 15 mm; in data set [3], 12 mm; in [4], 13 mm; in [10], 13 mm; in [11], 11 mm. Moreover, the Ratio in data set [2] is reported as 0.75; in data set [5] it was 0.76; in [7] it was 0.69; in data set [8], 0.71; in data set [9] it was 0.61. For the same compound, the Activity result in [6] is given as “Non-toxic”.

In the case of `CCOC(=O)C1C(c2ccccc2Cl)N(N=O)C(c2ccccc2Cl)C(C(=O)OCC)S1(=O)=O` (stereo not drawn), the zone of inhibition at 10 µg/mL was 10 mm in [1]; 13 mm in [3]; 12 mm in [4]; 16 mm in data set [10]; 9 mm in [11]. Moreover, the Ratio in data set [2] is listed as 0.5; in [5] it was 0.71; in data set [7], 0.84; in [8] it was 0.76; in data set [9] it was 0.5. Moreover, the Activity result in [6] was “Non-toxic”.

Take `CCOC(=O)C1C(c2cccc(Cl)c2)N(N=O)C(c2cccc(Cl)c2)C(C(=O)OCC)S1(=O)=O` (stereo not drawn): the zone of inhibition at 10 µg/mL came out at 8 mm in [1]; 14 mm in data set [3]; 10 mm in [4]; 15 mm in data set [10]; 11 mm in [11]. In addition, the Ratio in [2] stood at 0.4; in data set [5] it was 0.59; in [7], 0.79; in data set [8] it was 0.82; in data set [9] it was 0.61. Moreover, in [6], the Activity result is reported as “Non-toxic”.

Source of the values: ChEMBL document CHEMBL3045015, “Synthesis and physiological evaluation of new N-nitroso-2,6-dicarbethoxy-3,5-diaryltetrahydro-1,4-thiazine-1,1-dioxides” (Med Chem Res, 2012).
